According to ChEMBL document CHEMBL2429775, “The cytotoxicity of 8-O-4' neolignans from the seeds of Crataegus pinnatifida” (Bioorg Med Chem Lett, 2013):

How the values were obtained:
[1] = tested on: MCF7; experiment: Growth inhibition against human MCF7 cells after 48 hrs by MTT assay; assay type: functional, cell-based; conditions: for IC50: MCF7, 48 h
[2] = tested on: HeLa; experiment: Growth inhibition against human HeLa cells after 48 hrs by MTT assay; assay type: functional, cell-based
[3] = tested on: A375-S2; experiment: (§1) Growth inhibition against human A375-S2 cells after 48 hrs by MTT assay; assay type: functional, cell-based
[4] = tested on: HT-1080; experiment: Growth inhibition against human HT1080 cells after 48 hrs by MTT assay; assay type: functional, cell-based; conditions: for IC50: HT-1080, 48 h
[5] = tested on: HL-60; experiment: Growth inhibition against human HL60 cells after 48 hrs by MTT assay; assay type: functional, cell-based; conditions: for IC50: HL-60, 48 h
[6] = tested on: HepG2; experiment: Growth inhibition against human HepG2 cells after 48 hrs by MTT assay; assay type: functional, cell-based; conditions: for IC50: HepG2, 48 h
[7] = tested on: A549; experiment: Growth inhibition against human A549 cells after 48 hrs by MTT assay; assay type: functional, cell-based; conditions: for IC50: A549, 48 h
[8] = tested on: HCT-116; experiment: Growth inhibition against human HCT116 cells after 48 hrs by MTT assay; assay type: functional, cell-based; conditions: for IC50: HCT-116, 48 h
[9] = tested on: U-937; experiment: Growth inhibition against human U937 cells after 48 hrs by MTT assay; assay type: functional, cell-based; conditions: for IC50: U-937, 48 h
[10] = tested on: K562; experiment: Growth inhibition against human K562 cells after 48 hrs by MTT assay; assay type: functional, cell-based; conditions: for IC50: K562, 48 h
[11] = as §1; assay type: functional, cell-based; conditions: A375-S2, 48 h
[12] = tested on: MRC5; experiment: Growth inhibition against human MRC5 cells after 48 hrs by MTT assay; assay type: cell-based; conditions: for IC50: Homo sapiens, MRC5, 48 h; for growth inhibition (GI): human, mrc5, 48 h

Compound: O=c1[nH]cc(F)c(=O)[nH]1 [FLUOROURACIL]
- growth inhibition (GI) [1]: Dose-dependent effect
- growth inhibition (GI) [2]: Dose-dependent effect
- growth inhibition (GI) [3]: Dose-dependent effect
- growth inhibition (GI) [4]: Dose-dependent effect
- growth inhibition (GI) [5]: Dose-dependent effect
- IC50 [5]: 10.1 µM
- growth inhibition (GI) [6]: Dose-dependent effect
- growth inhibition (GI) [7]: Dose-dependent effect
- growth inhibition (GI) [8]: Dose-dependent effect
- growth inhibition (GI) [9]: Dose-dependent effect
- growth inhibition (GI) [10]: Dose-dependent effect

Compound: COc1cc([C@@H](OC)[C@@H](CO)Oc2ccc(/C=C/C=O)cc2OC)ccc1O
- growth inhibition (GI) [1]: Dose-dependent effect
- IC50 [1]: > 50 µM
- IC50 [2]: > 50 µM
- growth inhibition (GI) [2]: Dose-dependent effect
- IC50 [11]: > 50 µM
- growth inhibition (GI) [3]: Dose-dependent effect
- growth inhibition (GI) [4]: Dose-dependent effect
- IC50 [4]: 31.9 µM
- growth inhibition (GI) [5]: Dose-dependent effect
- IC50 [5]: 25.5 µM
- growth inhibition (GI) [6]: Dose-dependent effect
- IC50 [6]: 40 µM
- growth inhibition (GI) [7]: Dose-dependent effect
- IC50 [7]: > 50 µM
- growth inhibition (GI) [8]: Dose-dependent effect
- IC50 [8]: 26.4 µM
- growth inhibition (GI) [9]: Dose-dependent effect
- IC50 [9]: 2.71 µM
- growth inhibition (GI) [10]: Dose-dependent effect
- IC50 [10]: > 50 µM
- IC50 [12]: > 50 µM
- growth inhibition (GI) [12]: Dose-dependent effect

Compound: COc1cc([C@H](O)[C@@H](CO)Oc2ccc(C=O)cc2OC)ccc1O
- growth inhibition (GI) [1]: Dose-dependent effect
- IC50 [1]: > 50 µM
- IC50 [2]: > 50 µM
- growth inhibition (GI) [2]: Dose-dependent effect
- IC50 [11]: > 50 µM
- growth inhibition (GI) [3]: Dose-dependent effect
- growth inhibition (GI) [4]: Dose-dependent effect
- IC50 [4]: > 50 µM
- growth inhibition (GI) [5]: Dose-dependent effect
- IC50 [5]: > 50 µM
- growth inhibition (GI) [6]: Dose-dependent effect
- IC50 [6]: > 50 µM
- growth inhibition (GI) [7]: Dose-dependent effect
- IC50 [7]: > 50 µM
- growth inhibition (GI) [8]: Dose-dependent effect
- IC50 [8]: > 50 µM
- growth inhibition (GI) [9]: Dose-dependent effect
- IC50 [9]: 39.1 µM
- growth inhibition (GI) [10]: Dose-dependent effect
- IC50 [10]: > 50 µM
- IC50 [12]: > 50 µM
- growth inhibition (GI) [12]: Dose-dependent effect

Compound: COC/C=C/c1ccc(O[C@H](CO)[C@H](OC)c2ccc(O)c(OC)c2)c(OC)c1
- growth inhibition (GI) [1]: Dose-dependent effect
- IC50 [1]: > 50 µM
- IC50 [2]: > 50 µM
- growth inhibition (GI) [2]: Dose-dependent effect
- IC50 [11]: > 50 µM
- growth inhibition (GI) [3]: Dose-dependent effect
- growth inhibition (GI) [4]: Dose-dependent effect
- IC50 [4]: 36.4 µM
- growth inhibition (GI) [5]: Dose-dependent effect
- IC50 [5]: 27.4 µM
- growth inhibition (GI) [6]: Dose-dependent effect
- IC50 [6]: > 50 µM
- growth inhibition (GI) [7]: Dose-dependent effect
- IC50 [7]: > 50 µM
- growth inhibition (GI) [8]: Dose-dependent effect
- IC50 [8]: 36 µM
- growth inhibition (GI) [9]: Dose-dependent effect
- IC50 [9]: > 50 µM
- growth inhibition (GI) [10]: Dose-dependent effect
- IC50 [10]: > 50 µM
- IC50 [12]: > 50 µM
- growth inhibition (GI) [12]: Dose-dependent effect

Compound: COc1cc([C@@H](O)[C@@H](CO)Oc2ccc(/C=C/C=O)cc2OC)ccc1O
- growth inhibition (GI) [1]: Dose-dependent effect
- IC50 [1]: > 50 µM
- IC50 [2]: > 50 µM
- growth inhibition (GI) [2]: Dose-dependent effect
- IC50 [11]: 34.2 µM
- growth inhibition (GI) [3]: Dose-dependent effect
- growth inhibition (GI) [4]: Dose-dependent effect
- IC50 [4]: 33 µM
- growth inhibition (GI) [5]: Dose-dependent effect
- IC50 [5]: 33.5 µM
- growth inhibition (GI) [6]: Dose-dependent effect
- IC50 [6]: 38.6 µM
- growth inhibition (GI) [7]: Dose-dependent effect
- IC50 [7]: 25.5 µM
- growth inhibition (GI) [8]: Dose-dependent effect
- IC50 [8]: 27.3 µM
- growth inhibition (GI) [9]: Dose-dependent effect
- IC50 [9]: > 50 µM
- growth inhibition (GI) [10]: Dose-dependent effect
- IC50 [10]: > 50 µM
- IC50 [12]: > 50 µM
- growth inhibition (GI) [12]: Dose-dependent effect

Compound: COc1cc([C@H](O)[C@@H](CO)Oc2ccc(/C=C/C=O)cc2OC)ccc1O
- growth inhibition (GI) [1]: Dose-dependent effect
- IC50 [1]: > 50 µM
- IC50 [2]: > 50 µM
- growth inhibition (GI) [2]: Dose-dependent effect
- IC50 [11]: 36.4 µM
- growth inhibition (GI) [3]: Dose-dependent effect
- growth inhibition (GI) [4]: Dose-dependent effect
- IC50 [4]: 35.2 µM
- growth inhibition (GI) [5]: Dose-dependent effect
- IC50 [5]: 36.6 µM
- growth inhibition (GI) [6]: Dose-dependent effect
- IC50 [6]: 38.5 µM
- growth inhibition (GI) [7]: Dose-dependent effect
- IC50 [7]: 33.6 µM
- growth inhibition (GI) [8]: Dose-dependent effect
- IC50 [8]: 32.5 µM
- growth inhibition (GI) [9]: Dose-dependent effect
- IC50 [9]: > 50 µM
- growth inhibition (GI) [10]: Dose-dependent effect
- IC50 [10]: > 50 µM
- IC50 [12]: > 50 µM
- growth inhibition (GI) [12]: Dose-dependent effect

Compound: COc1cc([C@@H](O)[C@@H](CO)Oc2ccc(C=O)cc2OC)ccc1O
- growth inhibition (GI) [1]: Dose-dependent effect
- IC50 [1]: > 50 µM
- IC50 [2]: > 50 µM
- growth inhibition (GI) [2]: Dose-dependent effect
- IC50 [11]: > 50 µM
- growth inhibition (GI) [3]: Dose-dependent effect
- growth inhibition (GI) [4]: Dose-dependent effect
- IC50 [4]: > 50 µM
- growth inhibition (GI) [5]: Dose-dependent effect
- IC50 [5]: > 50 µM
- growth inhibition (GI) [6]: Dose-dependent effect
- IC50 [6]: > 50 µM
- growth inhibition (GI) [7]: Dose-dependent effect
- IC50 [7]: > 50 µM
- growth inhibition (GI) [8]: Dose-dependent effect
- IC50 [8]: > 50 µM
- growth inhibition (GI) [9]: Dose-dependent effect
- IC50 [9]: 32.2 µM
- growth inhibition (GI) [10]: Dose-dependent effect
- IC50 [10]: > 50 µM
- IC50 [12]: > 50 µM
- growth inhibition (GI) [12]: Dose-dependent effect
